Structures can show the parent of a compound that is named as a salt.

In one data set the test system is STAT3. Nature of the data set: Immunoblot of TPA-inducible STAT3 phosphorylation. To be noted: 17.0 μM and 8.5 μM pretreatment. Type of data set: cell-based. How it is done:
To measure endogenous level of several proteins in response to TPA induction and compound I, HEK293 cells were lysed with RIPA buffer (10 mM Tris-HCl pH 7.5, 1 mM EDTA, 0.1% sodium dodecyl sulfate, 0.1% deoxycholate, and protease inhibitor). Whole cell extracts were subjected to immunoblot analysis with the following antibodies: p65 (F-6), p50 (E-10), p52 (C-5), RelB (C-19), IκBα (C-21), PCNA (F-2) were obtained from Santa Cruz Biotechnology (Santa Cruz, Calif.). IKKα, IKKβ, IKKγ, phospho-IκBα, phospho-IKKα/β, phospho-IKKγ, pohospho-Stat3 (Tyr 705 and Ser 727), phospho-p65 (Ser536 and Ser276), phospho-p44/42, phospho-JNKs were purchased from Cell Signaling (Danvers, Mass.), and α-tubulin from Sigma (St. Louis, Mo.). Nuclear and cytoplasmic extracts were prepared with HEK293 cells by NE-PER Nuclear and Cytoplasmic Extraction Reagents (Pierce Biotechnology, Rockford, Ill.) according to the manufacturer's protocol.
The selectivity of compound I was evaluated by measuring phosphorylation of proteins involved in the AP-1 induction pathway. AP-1 dependent transcription can be activated by MAP Kinases JNK, ERK 1/2 (p44/42). […] At these concentrations compound I, in contrast, completely repressed major regulators in the NFκB activation pathway. JNKs are activated by a variety of environmental stresses responsible for AP-1 activation through c-Jun phosphorylation. […]
On the technique in general: A western blot detects proteins with antibodies after separation by electrophoresis.

The target of the next data set is IKKα (Homo sapiens, UniProt O15111). The data set is described as follows: Off-chip incubation mobility-shift kinase assay, IKKα. Type of data set: biochemical. To be noted: fully activated, phosphorylated IKKα; 1.25, 2.50, 5.00, and 10.00 μM. As for the experimental part: In an attempt to determine whether compound I interferes with ATP binding to the catalytic site, the activity of compound I was measured with fully activated, phosphorylated IKKα or IKKβ. […] However, whether this compound interacts outside of the ATP binding pocket of IKK as an ATP non-competitive inhibitor similar to BMS-345541 is unknown. […] Luciferase activities with TPA induction alone were set at 100% and the relative activities with TPA in the presence of compounds are shown.
Sequence of IKKα (O15111 whole entry, species assumed): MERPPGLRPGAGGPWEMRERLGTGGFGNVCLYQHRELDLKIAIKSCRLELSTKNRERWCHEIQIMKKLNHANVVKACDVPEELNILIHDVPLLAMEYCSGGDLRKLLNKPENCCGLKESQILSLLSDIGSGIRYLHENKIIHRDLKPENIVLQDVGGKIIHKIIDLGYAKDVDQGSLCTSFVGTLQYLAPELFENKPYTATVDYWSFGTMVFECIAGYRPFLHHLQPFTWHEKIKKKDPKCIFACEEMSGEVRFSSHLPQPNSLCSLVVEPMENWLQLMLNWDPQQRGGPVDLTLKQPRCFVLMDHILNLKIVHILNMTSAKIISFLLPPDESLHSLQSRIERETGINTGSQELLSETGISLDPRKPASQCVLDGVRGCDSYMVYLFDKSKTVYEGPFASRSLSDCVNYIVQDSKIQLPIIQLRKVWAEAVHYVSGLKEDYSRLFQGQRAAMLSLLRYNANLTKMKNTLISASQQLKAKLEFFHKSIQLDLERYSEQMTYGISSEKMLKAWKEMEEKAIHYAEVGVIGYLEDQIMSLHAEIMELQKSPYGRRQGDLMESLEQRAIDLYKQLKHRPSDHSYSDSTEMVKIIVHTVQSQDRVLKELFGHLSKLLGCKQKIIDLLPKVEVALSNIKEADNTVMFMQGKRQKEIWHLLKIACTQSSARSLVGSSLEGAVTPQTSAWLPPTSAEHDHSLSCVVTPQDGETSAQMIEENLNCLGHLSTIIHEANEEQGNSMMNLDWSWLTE

Another data set has as its system HEK293T cells. Nature of the data set: XTT assay in HEK293T cells. Type of data set: cell-based. As for the experimental part:
To evaluate whether the compound I biological activity can imitate TAM67 specificity, three different transcriptional promoter reporters were used, AP-1, NFκB, and SRE (Serum response element) in luciferase reporter assays (FIG. 1A: The transfected cells were pre-treated with varied concentrations of compound I or DMSO for 1 hour before 18 hours stimulation by TPA (10 ng/ml) or DMSO as vehicle. An asterisk (*) indicates a separate experiment with NFκB dependent luciferase only. Assays were performed with two independent experiments each in quadruplicate.). All three activities were induced by TPA but only induction of AP-I and NFκB were inhibited by TAM67. The SRE reporter was used as a specificity control and indicator of cell proliferation. TPA-induced SRE activity was not repressed by TAM67 when coexpressed with the SRE-Luc reporter in HEK293 cells. The same concentration (10 ng/ml, 16.2 nM) and incubation time (18 hrs) were used for TPA induction as previously used for the high throughput screen (HTS) (Ruocco et al., J. Biomol. Screen., 2007, 12, 133-9) along with 1 h pretreatment of compound I. The screening results had tested concentrations as high as 40 μM compound I with cell numbers showing 95.5+/−6.2% of DMSO control (ave+/− sd, n=3) by the XTT assay in HEK293T cells.
(Formazan colour is commonly taken as a measure of viable cells.)

The next data set relates to uPAR promoter. The data set is described as follows: uPAR promoter luciferase reporter assay in HEK293 cells. Type of data set: cell-based, human. To be noted: TPA 10 ng/ml 18 hours. As for the experimental part:
(§1) All expression plasmids were transiently transfected into HEK293 cells in a 96-well plate (0.1 μg/well) by using Effectene transfection reagent (Qiagen, Valencia, Calif.) according to the manufacturer's manual. HEK293 cells were maintained in Dulbecco's modified Eagle medium (Sigma, St. Louis, Mo.) supplemented with 10% fetal bovine serum (Atlanta Biologicals, Lawrenceville, Ga.) and incubated at 37° C. in a 5% CO2 incubator. After 24 hrs incubation, the medium was changed to DMEM with 0.2% FBS, and the transfectants were exposed to various concentrations of compound I and TPA (10 ng/ml). Cells were lysed with passive lysis buffer and the luciferase assay was performed using the Firefly-Luciferase reporter assay system (Promega, Madison, Wis.) and MLX Luminometer (Dynex Technology, Chantilly, Va.).
Three different luciferase reporter genes, AP-1 reporter containing four times TRE consensus originated from GCN4 and SRE reporter purchased from Stratagene (La Jolla, Calif.) respectively are as described previously (Suzukawa et al., Environ. Health Perspect., 2002, 110, 865-70). […]
Inhibition of NFκB transactivation would be expected to result in suppressed expression of genes whose transcription depends on NFκB. Quantitative RT-PCR was used to measure endogenous levels of IL-6 mRNA, transcribed from a gene whose transcription depends on NFκB but not AP-1. […]

The subject of a further data set is cell proliferation. The data set is described as follows: Cell proliferation. Type of data set: cell-based.
A further data set relates to AP-1. Nature of the data set: AP-1 luciferase reporter assay in HEK293 cells. Type of data set: cell-based. How it is done: as §1
Three different luciferase reporter genes, AP-1 reporter containing four times TRE consensus originated from GCN4 and SRE reporter purchased from Stratagene (La Jolla, Calif.) respectively are as described previously (Suzukawa et al., Environ. Health Perspect., 2002, 110, 865-70). NFκB reporter is driven by five times NFκB responsive element inserted into Cis-reporter backbone (Stratagene, La Jolla, Calif.). Others include mouse COX-2 promoter region from −203 to +70 relative to the transcription site inserted into pTIS10L vector (Kim and Fischer, J. Biol. Chem., 1998, 273, 27686-94), human uPAR promoter region from −141 to +47 relative to transcription start site in pGL3 vector (Wang et al., Eur. J. Biochem., 2000, 267, 3248-54), and human VEGF promoter sequence from −2274 to +379 inserted into the pGL2 vector (Ding et al., J. Biol. Chem., 2006, 281, 9093-100). […]
For orientation: A reporter such as luciferase makes a cellular process visible.

For the molecule `Cc1cc(N)ccc1N=Nc1ccc(S(=O)(=O)CCOS(=O)(=O)O)cc1` [compound I, 2-(4-((4-amino-2-methylphenyl)diazenyl)phenylsulfonyl)ethyl hydrogen sulfate], the “TPA inducible phosphorylation of STAT3” value with STAT3 is recorded as “no repression”. Besides, the “Inhibition of IKKα activity, phosphorylation of a peptide substrate” value at IKKα is “does not inhibit”. The “Cell numbers, % of DMSO control (ave+/− sd, n=3)” value in the data set on HEK293T cells (40 μM, XTT assay, HEK293T) is recorded as 95.5+/−6.2%. For the same molecule, the “Cytotoxic or cytostatic activity” value in the data set with HEK293T cells (HEK293 cells) is “neither cytotoxic nor cytostatic activity”. In addition, the “uPAR luciferase activity” value in the data set on uPAR promoter was “dose-dependent inhibition”. Moreover, in the data set with cell proliferation, the “Suppression of cell proliferation” value is “does not suppress”. Also, in the data set on AP-1 (HEK293, 1 h pretreatment, TPA 10 ng/ml 18 hrs, read-out: IC50 for inhibition of TPA induced AP-1), the IC50 (usually the concentration at which inhibition is half-maximal) was 17 µM. In addition, in the data set on AP-1 (compound at 17.0 μM, HEK293, TPA 10 ng/ml 18 hrs), the “AP-1 luciferase activity, % of the activity with TPA alone” value was 50%.

Values taken from US8729053B2, “Nuclear factor kappa B pathway inhibitor composition and use of same” (The United States of America, as represented by the …, priority 2008, dated 2014).
